US20230126893A1, “[(1,4,5-TRISUBSTITUTED-1H-PYRAZOL-3-YL)SULFANYL]ACETIC ACID DERIVATIVES, SALTS THEREOF, AND USE THEREOF AS ACTIVE HERBICIDAL INGREDIENTS” (BAYER AKTIENGESELLSCHAFT, priority 2020, published 2023)

Key:
Assay type in all cases: in vivo
[1] = system: Setaria viridis; assay: Pre-emergence herbicidal effect against SETVI; conditions: 1280 g/ha, visual score after 3 weeks, 100% = plants have died, 0% = like control plants
Source text: (§1) 1. Pre-emergence herbicidal effect and crop plant compatibility Seeds of monocotyledonous and dicotyledonous weed plants and crop plants are laid out in sandy loam soil in wood-fibre pots and covered with soil. The compounds of the invention, formulated in the form of wettable powders (WP) or as emulsion concentrates (EC), are then applied to the surface of the covering soil as aqueous suspension or emulsion at a water application rate equating to 600 to 800 L/ha with addition of 0.2% wetting agent. After the treatment, the pots are placed in a greenhouse and kept under good growth conditions for the trial plants. The damage to the test plants is scored visually after a test period of 3 weeks by comparison with untreated controls (herbicidal activity in percent (%): 100% activity=the plants have died, 0% activity=like control plants). [table]

[2] = system: Veronica persica; assay: Pre-emergence herbicidal effect against VERPE; conditions: 1280 g/ha, visual score after 3 weeks, 100% = plants have died, 0% = like control plants
Source text: as §1

[3] = system: Stellaria media; assay: Pre-emergence herbicidal effect against STEME; conditions: 1280 g/ha, visual score after 3 weeks, 100% = plants have died, 0% = like control plants
Source text: as §1

[4] = system: Amaranthus retroflexus; assay: Pre-emergence herbicidal effect against AMARE; conditions: 1280 g/ha, visual score after 3 weeks, 100% = plants have died, 0% = like control plants
Source text: as §1

[5] = system: Bassia scoparia; assay: Post-emergence herbicidal effect against KCHSC; conditions: 1280 g/ha, visual assessment about 3 weeks after treatment, 100% = plants have died, 0% = like control plants
Description: (§2) [table] 2. Post-emergence herbicidal effect and crop plant compatibility Seeds of monocotyledonous and dicotyledonous weed and crop plants are laid out in sandy loam soil in wood-fibre pots, covered with soil and cultivated in a greenhouse under good growth conditions. 2 to 3 weeks after sowing, the test plants are treated at the one-leaf stage. The compounds of the invention, formulated in the form of wettable powders (WP) or as emulsion concentrates (EC), are then sprayed onto the green parts of the plants as aqueous suspension or emulsion at a water application rate equating to 600 to 800 l/ha with addition of 0.2% wetting agent. After the test plants have been left to stand in the greenhouse under optimal growth conditions for about 3 weeks, the action of the preparations is assessed visually in comparison to untreated controls (herbicidal action in percent (%): 100% activity=the plants have died, 0% activity=like control plants).

[6] = system: Digitaria sanguinalis; assay: Pre-emergence herbicidal effect against DIGSA; conditions: 1280 g/ha, visual score after 3 weeks, 100% = plants have died, 0% = like control plants
Source text: as §1

[7] = system: Tripleurospermum inodorum; assay: Pre-emergence herbicidal effect against MATIN; conditions: 1280 g/ha, visual score after 3 weeks, 100% = plants have died, 0% = like control plants
Source text: as §1

[8] = system: Echinochloa crus-galli; assay: Pre-emergence herbicidal effect against ECHCG; conditions: 1280 g/ha, visual score after 3 weeks, 100% = plants have died, 0% = like control plants
Source text: as §1

[9] = system: Alopecurus myosuroides; assay: Pre-emergence herbicidal effect against ALOMY; conditions: 1280 g/ha, visual score after 3 weeks, 100% = plants have died, 0% = like control plants
Source text: as §1

[10] = system: Poa annua; assay: Post-emergence herbicidal effect against POAAN; conditions: 1280 g/ha, visual assessment about 3 weeks after treatment, 100% = plants have died, 0% = like control plants
Description: as §2

[11] = system: Veronica persica; assay: Post-emergence herbicidal effect against VERPE; conditions: 1280 g/ha, visual assessment about 3 weeks after treatment, 100% = plants have died, 0% = like control plants
Description: as §2

[12] = system: Lolium rigidum; assay: Pre-emergence herbicidal effect against LOLRI; conditions: 1280 g/ha, visual score after 3 weeks, 100% = plants have died, 0% = like control plants
Source text: as §1

[13] = system: Poa annua; assay: Pre-emergence herbicidal effect against POAAN; conditions: 1280 g/ha, visual score after 3 weeks, 100% = plants have died, 0% = like control plants
Source text: as §1

[14] = system: Abutylon threophrasti; assay: Post-emergence herbicidal effect against ABUTH; conditions: 1280 g/ha, visual assessment about 3 weeks after treatment, 100% = plants have died, 0% = like control plants
Description: as §2

[15] = system: Amaranthus retroflexus; assay: Post-emergence herbicidal effect against AMARE; conditions: 1280 g/ha, visual assessment about 3 weeks after treatment, 100% = plants have died, 0% = like control plants
Description: as §2

[16] = system: Tripleurospermum inodorum; assay: Post-emergence herbicidal effect against MATIN; conditions: 1280 g/ha, visual assessment about 3 weeks after treatment, 100% = plants have died, 0% = like control plants
Description: as §2

[17] = system: Stellaria media; assay: Post-emergence herbicidal effect against STEME; conditions: 1280 g/ha, visual assessment about 3 weeks after treatment, 100% = plants have died, 0% = like control plants
Description: as §2

[18] = system: Echinochloa crus-galli; assay: Post-emergence herbicidal effect against ECHCG; conditions: 1280 g/ha, visual score after about 3 weeks, 100% = plants have died, 0% = like control plants
Description: as §2

[19] = system: Alopecurus myosuroides; assay: Post-emergence herbicidal effect against ALOMY; conditions: 1280 g/ha, visual score after about 3 weeks, 100% = plants have died, 0% = like control plants
Description: as §2

[20] = system: Digitaria sanguinalis; assay: Post-emergence herbicidal effect against DIGSA; conditions: 1280 g/ha, visual score after about 3 weeks, 100% = plants have died, 0% = like control plants
Description: as §2

[21] = system: Setaria viridis; assay: Post-emergence herbicidal effect against SETVI; conditions: 1280 g/ha, visual assessment about 3 weeks after treatment, 100% = plants have died, 0% = like control plants
Description: as §2

Compound | Pre-emergence action against SETVI [1] | Pre-emergence action against VERPE [2] | Pre-emergence action against STEME [3] | Pre-emergence action against AMARE [4] | Post-emergence action against KCHSC [5] | Pre-emergence action against DIGSA [6] | Pre-emergence action against MATIN [7] | Pre-emergence action against ECHCG [8] | Pre-emergence action against ALOMY [9] | Post-emergence action against POAAN [10] | Post-emergence action against VERPE [11] | Pre-emergence action against LOLRI [12] | Pre-emergence action against POAAN [13] | Post-emergence action against ABUTH [14] | Post-emergence action against AMARE [15] | Post-emergence action against MATIN [16] | Post-emergence action against STEME [17] | Post-emergence action against ECHCG [18] | Post-emergence action against ALOMY [19] | Post-emergence action against DIGSA [20] | also measured
O=C(O)CSc1nn(-c2ccccc2F)c(-c2cc(F)cc(Cl)c2)c1Br [Example I-009] | 100% | 90% | 100% | 100% | 100% | 100% | 100% | 90% | 90% | 100% | 90% | 100% | 100% | 90% | 100% | 100% | 100% |  |  |  | 
CCOC(=O)CSc1nn(-c2ccccc2F)c(-c2ccc(F)c(F)c2)c1C#N [Example I-012] | 100% | 100% | 100% | 100% | 90% | 100% | 100% | 100% |  | 100% | 100% | 90% | 100% |  | 90% | 90% | 100% | 100% | 100% | 100% | Post-emergence action against SETVI [21]: 90%
O=C(O)CSc1nn(-c2cccc(F)c2F)c(-c2ccccc2)c1Br [Example I-006] | 100% | 100% | 90% | 100% | 90% | 100% | 100% | 90% | 90% | 100% | 90% | 90% | 100% |  | 100% | 100% | 100% |  | 100% | 100% | 
O=C(O)CSc1nn(-c2ccccc2F)c(-c2cncc(Cl)c2)c1Br [II-008] | 100% | 100% | 100% | 100% |  | 100% | 100% | 100% | 100% | 100% | 100% | 100% | 100% | 90% | 90% | 100% | 100% | 100% | 100% | 100% | Post-emergence action against SETVI [21]: 90%
